Data reported in patent publication US12427212B2, “Nectin-4 binding miniproteins, conjugates and uses thereof” (Aktis Oncology, Inc., priority 2023, dated 2025).
Bridges are numbered along the chain shown (N, C = ends). [ ]: non-standard residue; d: D form. The star is where a group is joined. Biotin = O=C1N[C@H]2[C@H](CS[C@H]2CCCCC(=O)*)N1; Lys(Me3) = C[N+](C)(C)CCCC[C@H](N)C(=O)O; Arg(Me2s) = CN=C(NC)NCCC[C@H](N)C(=O)O; Cit = NC(=O)NCCC[C@H](N)C(=O)O; PEG4 = NCCOCCOCCOCCOCCC(=O)O

How the values were obtained:
[1] = system: un-transfected HEK293 cells; experiment: Background binding to un-transfected HEK293 cells (cell microarray suitability); format: cell-based, human; conditions: biotin-labeled molecules
Experimental: To evaluate potential off-target binding, six biotin-labeled molecules were tested in a cell microarray platform having 6,416 different human proteins spanning diverse functions and subcellular locations.

Nectin-4 = target: T1, Nectin-4 (Homo sapiens, UniProt Q96NY8); experiment: DELFIA competitive binding assay (Ki) against Eu-labeled C307 on HT-1376 cells
T1 sequence (Q96NY8 32-510): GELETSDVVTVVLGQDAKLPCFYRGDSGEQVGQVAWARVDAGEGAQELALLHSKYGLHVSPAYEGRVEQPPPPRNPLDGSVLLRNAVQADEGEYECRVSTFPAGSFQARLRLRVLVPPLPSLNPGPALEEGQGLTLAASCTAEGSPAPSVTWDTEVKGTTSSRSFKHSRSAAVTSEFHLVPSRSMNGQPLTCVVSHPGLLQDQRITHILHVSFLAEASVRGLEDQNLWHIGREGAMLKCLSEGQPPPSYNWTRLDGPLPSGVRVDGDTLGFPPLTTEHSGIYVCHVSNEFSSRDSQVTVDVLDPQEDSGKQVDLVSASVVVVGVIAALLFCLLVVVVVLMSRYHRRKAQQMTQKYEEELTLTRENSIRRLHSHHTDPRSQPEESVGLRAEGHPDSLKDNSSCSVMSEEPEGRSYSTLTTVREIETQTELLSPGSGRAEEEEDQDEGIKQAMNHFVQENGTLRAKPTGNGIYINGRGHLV
Experimental: A competition binding assay was utilized to determine the Ki for miniproteins bound to Nectin-4 expressed on the surface of cancer cells. […] Miniprotein incubations occurred for 90 min to reach binding equilibrium. […] After miniprotein incubations, the wells were washed to remove unbound ligand and treated according to manufacturer instructions for a DELFIA® (dissociation-enhanced lanthanide fluorescent immunoassay, Revvity Health Sciences). In brief, washed wells were incubated with 15 μL of 2 M HCl for 2 h at 37° C., after which 17 μL of 2 M NaOH and 30 μL of DELFIA® enhancement solution were added to each well and incubated for an additional 30 min. The remaining Eu reacted with the DELFIA® enhancer solution to generate fluorescence measured on the Envision instrument. Relative fluorescence units (RFUs) were measured as a function of test article concentration in order to calculate an IC50.
A whole cell binding assay was used to estimate the equilibrium binding affinity (KD) or binding inhibition constant (Ki) of miniprotein ligands to cells expressing a target of interest. Cells were dispensed into a 384-well plate and incubated at 37° C., in 5% CO2 overnight. The next day cells were gently washed once in assay buffer prior to addition of europium chelated ligand. […] For Ki determination, a single concentration (KD equivalent concentration) of europium-chelate miniprotein was added to each well followed immediately by the addition of unconjugated competing ligand over 12 different concentrations ranging from 100 times below and above expected Ki values as before. The plate was incubated for 1.5 h at room temperature to reach binding equilibrium. Cells were then washed three times at room temperature with 1×PBS followed by the addition of 2 M HCl and incubated for two h at 37° C. Following this step, 2 M NaOH and fluorescent inducer solution were added to each well and incubated for 30 minutes at room temperature according to the manufacturer's protocol (Perkin-ELMER DELFIA assay). Plates were read on an Envision plate reader and a curve-fitting model was applied to estimate KD and Ki values using GraphPad Prism software.
Engineered Nectin-4 miniproteins with further modified lysine residues (C298-C304; as described in Example 4B) were evaluated for their ability to bind to Nectin-4.

[2] = system: Opossum kidney proximal tubule cells; experiment: Proximal tubule epithelial cell uptake assay; format: cell-based; conditions: Table 10A; mean percent uptake in opossum kidney cells, 1 h at 37° C., relative to control miniprotein C306
Experimental: FIG. 8 is a bar graph of the percent uptake of exemplary miniproteins tested at 20 µM in a proximal tubule epithelial cell assay vs 20 μM control peptide set at 100%. […]
Opossum kidney proximal tubule cells were plated in the upper chamber of 24-well transwell plates containing 600 μL of growth media in the lower chamber and were incubated overnight at 37° C., in 5% CO2. The following day, the media was changed, and cells were incubated an additional 24 h with orbital shaking at 146 RPM. Next, cells were washed and treated in duplicates with biotinylated exemplary miniproteins pre-complexed with streptavidin-AF647 for 1 h at 37° C., and 5% C02 with continuous orbital shaking. Following incubation, cells were washed three times with 1×PBS and lysed with RIPA buffer containing protease and phosphatase inhibitor cocktail and a universal nuclease for 30 minutes. Uptake was measured on 100 μL of lysates using a fluorimeter. Mean % uptake values of control miniprotein C306 in the presence of exemplary miniproteins are provided in TABLE 10A and summarized in FIG. 8.
Uptake of engineered Nectin-4 miniproteins with further modified lysine residues (C298-C304, as described in Example 4B) was evaluated. Percent uptake of these exemplary Nectin-4-targeting miniproteins and C251 were determined against a control miniprotein, C306, using opossum kidney proximal tubule cells as described in Example 18A. Percent uptake of C298, which has an unmodified lysine (K) at amino acid position 26 (along the length of the miniprotein sequence. SEQ ID NO: 162), was 37% in the presence of […]. All other miniproteins having a modified lysine (modified with one or more small alkyl groups of monomethyl, dimethyl, trimethyl, or isopropyl group) had (i) kidney uptake similar to that of C251 and (ii) reduced uptake as compared to C298, which has an unmodified lysine at position 26.

Compound | Background binding to un-transfected HEK293 cells [1] | Ki (Nectin-4) | % Uptake of C306 (Control) [2]
CC[C@H](C)[C@@H]1NC(=O)[C@H](Cc2ccc(O)cc2)NC(=O)[C@H](CC(=O)O)NC(=O)[C@@H]2CSSC[C@@H](C(=O)N[C@@H](CO)C(=O)O)NC(=O)CNC(=O)[C@H](CC(C)C)NC(=O)[C@H](CC(N)=O)NC(=O)[C@H](CC(=O)O)NC(=O)[C@H](CC(C)C)NC(=O)[C@H]([C@@H](C)CC)NC(=O)[C@H](CCC(=O)O)NC(=O)[C@H](CCC(=O)O)NC(=O)[C@H]([C@@H](C)CC)NC(=O)[C@H](CSSC[C@H](NC(=O)CCOCCOCCOCCOCCNC(=O)CCCC[C@@H]3SC[C@@H]4NC(=O)N[C@@H]43)C(=O)N[C@@H](CCC(=O)O)C(=O)N[C@@H](Cc3ccc(O)cc3)C(=O)N[C@@H](CC(=O)O)C(=O)N[C@@H](CCC(=O)O)C(=O)N[C@@H](CCC(N)=O)C(=O)N[C@@H](Cc3ccccc3)C(=O)N[C@@H](Cc3ccccc3)C(=O)N[C@@H]([C@@H](C)O)C(=O)N[C@@H](C)C(=O)N[C@@H](CC(C)C)C(=O)N[C@@H](CCCCN)C(=O)N[C@@H](CCCNC(=N)N)C(=O)N[C@@H](CC(C)C)C(=O)N[C@@H](CCCNC(=N)N)C(=O)NCC(=O)N[C@@H](CC(=O)O)C(=O)N[C@@H](CC(=O)O)C(=O)N[C@@H]([C@@H](C)CC)C(=O)N2)NC(=O)[C@H](CC(C)C)NC(=O)CNC(=O)[C@@H]2CCCN2C(=O)[C@H](CC(C)C)NC(=O)[C@H](Cc2ccc(O)cc2)NC(=O)[C@H](CCC(N)=O)NC(=O)[C@H](Cc2ccccc2)NC(=O)[C@H](CO)NC(=O)[C@H](C)NC(=O)[C@H](CCC(N)=O)NC1=O [Compound C197] | low-background binding | – | –
CC[C@H](C)[C@@H]1NC(=O)[C@H](Cc2ccc(O)cc2)NC(=O)[C@H](CCC(=O)O)NC(=O)[C@@H]2CSSC[C@@H](C(=O)N[C@@H](CO)C(=O)O)NC(=O)CNC(=O)[C@H](CC(C)C)NC(=O)[C@H](CC(N)=O)NC(=O)[C@H](CC(=O)O)NC(=O)[C@H](CC(C)C)NC(=O)[C@H]([C@@H](C)CC)NC(=O)[C@H](CCC(=O)O)NC(=O)[C@H](CCC(=O)O)NC(=O)[C@H]([C@@H](C)CC)NC(=O)[C@H](CSSC[C@H](NC(=O)CCOCCOCCOCCOCCNC(=O)CCCC[C@@H]3SC[C@@H]4NC(=O)N[C@@H]43)C(=O)N[C@@H](CC(=O)O)C(=O)N[C@@H](Cc3ccc(O)cc3)C(=O)N[C@@H](CC(=O)O)C(=O)N[C@@H](CCC(=O)O)C(=O)N[C@@H](CCC(N)=O)C(=O)N[C@@H](Cc3ccccc3)C(=O)N[C@@H](Cc3ccccc3)C(=O)N[C@@H]([C@@H](C)O)C(=O)N[C@@H](C)C(=O)N[C@@H](CC(C)C)C(=O)N[C@@H](CCCCN)C(=O)N[C@@H](CCCNC(=N)N)C(=O)N[C@@H](CC(C)C)C(=O)N[C@@H](CCCNC(=N)N)C(=O)NCC(=O)N[C@@H](C)C(=O)N[C@@H](CC(=O)O)C(=O)N[C@@H]([C@@H](C)CC)C(=O)N2)NC(=O)[C@H](CCC(=O)O)NC(=O)CNC(=O)[C@@H]2CCCN2C(=O)[C@H](CC(C)C)NC(=O)[C@H](Cc2ccc(O)cc2)NC(=O)[C@H](CCC(N)=O)NC(=O)[C@H](Cc2ccccc2)NC(=O)[C@H](CO)NC(=O)[C@H](C)NC(=O)[C@H](CCC(N)=O)NC1=O [Compound C208] | low-background binding | – | –
CC[C@H](C)[C@@H]1NC(=O)[C@H](Cc2ccc(O)cc2)NC(=O)[C@H](CCC(=O)O)NC(=O)[C@@H]2CSSC[C@@H](C(=O)N[C@@H](CO)C(=O)O)NC(=O)CNC(=O)[C@H](CC(C)C)NC(=O)[C@H](CC(N)=O)NC(=O)[C@H](CC(=O)O)NC(=O)[C@H](CC(C)C)NC(=O)[C@H]([C@@H](C)CC)NC(=O)[C@H](CCC(=O)O)NC(=O)[C@H](CCC(=O)O)NC(=O)[C@H]([C@@H](C)CC)NC(=O)[C@H](CSSC[C@H](NC(=O)CCOCCOCCOCCOCCNC(=O)CCCC[C@@H]3SC[C@@H]4NC(=O)N[C@@H]43)C(=O)N[C@@H](CC(=O)O)C(=O)N[C@@H](Cc3ccc(O)cc3)C(=O)N[C@@H](CC(=O)O)C(=O)N[C@@H](CCC(=O)O)C(=O)N[C@@H](CCC(N)=O)C(=O)N[C@@H](Cc3ccccc3)C(=O)N[C@@H](Cc3ccccc3)C(=O)N[C@@H]([C@@H](C)O)C(=O)N[C@@H](C)C(=O)N[C@@H](CC(C)C)C(=O)N[C@@H](C)C(=O)N[C@@H](CCCNC(=N)N)C(=O)N[C@@H](CC(C)C)C(=O)N[C@@H](CCCNC(=N)N)C(=O)NCC(=O)N[C@@H](C)C(=O)N[C@@H](CC(=O)O)C(=O)N[C@@H]([C@@H](C)CC)C(=O)N2)NC(=O)[C@H](CCC(=O)O)NC(=O)CNC(=O)[C@@H]2CCCN2C(=O)[C@H](CC(C)C)NC(=O)[C@H](Cc2ccc(O)cc2)NC(=O)[C@H](CCC(N)=O)NC(=O)[C@H](Cc2ccccc2)NC(=O)[C@H](CO)NC(=O)[C@H](C)NC(=O)[C@H](CCC(N)=O)NC1=O [Compound C247] | low-background binding | – | –
{Biotin-PEG4}-CDYDEQFFTALA[Cit]LRGGDICEYIQA[Lys(Me3)]FQYLPGLCIEEILDNLGCS-OH (disulfide 1-34, 20-44) [Compound C259] | low-background binding | – | –
{Biotin-PEG4}-CDYDEQFFTALKRLRGGDICEYIQA[Lys(Me3)]FQYLPGECIEEILDNLGCS-OH (disulfide 1-34, 20-44) [Compound C255] | – | 660 pM | 14.1%
{Biotin-PEG4}-CEYDEEFFTALARLRGADICQYIQA[Lys(Me3)]FQYLPALCIEEILDNLGCS-OH (disulfide 1-34, 20-44) [Compound C252] | – | 760 pM | 1.24%
{Biotin-PEG4}-CEYDEQFFTALARLRGADICEYIQARFQYLPGLCIEEILDNLGCS-OH (disulfide 1-34, 20-44) [Compound C280] | – | 540 pM | 1.56%
{Biotin-PEG4}-CEYDEQFFTALARLRGGDICEYIQA[Arg(Me2s)]FQYLPGLCIEEILDNLGCS-OH (disulfide 1-34, 20-44) [Compound C267] | – | 760 pM | 0.800%
